Source: US9327264B2, “Containerless synthesis of amorphous and nanophase organic materials” (UCHICAGO ARGONNE, LLC, priority 2011, dated 2016)
Read-outs that look alike come from different tables or passages of the source.

What was measured:
Assay type in all cases: physicochemical
[1] = Glass transition temperature Tg
Protocol: The quenched samples were stored at temperatures ranging from about −20° C. to 25° C.

[2] = Shelf life of substantially pure amorphized materials stored at 4° C. (x-ray diffraction)
From the text: The inventors have discovered that acoustic levitation produces amorphous forms of a variety of organic compounds having different glass forming abilities. […] It is also noted that the term “vitreous”, “vitrify”, “vitrification”, “glass” and “glassy” are variations of amorphous for the purposes of this specification and may be used interchangeably. The x-ray diffraction patterns were obtained using very high flux, high energy x-rays that are capable of detecting even minute (<1%) traces of crystalline materials. A configuration to enable x-ray beam analysis is depicted in FIG. 8 and discussed infra.
Several amorphized samples were quenched by trapping them in a small volume of liquid quenchent (for example liquid nitrogen, which is maintained at about −196° C.). The quenched samples were stored at temperatures ranging from about −20° C. to 25° C.
Shelf life is therefore extended by cooling them. […] For bulk storage of amorphized materials, samples are stored at temperatures below freezing (0° C.) if the samples are to be kept more than 150 days. However, for short term storage (e.g., less than 150 days), stability is achieved at storage temperatures up to about 20° C.
Myriad types of materials are candidates for processing using the invented weightless process. Suitable genuses of material include, but are not limited to pharmaceuticals, antibiotics, cosmetics, foods such as dairy products, and combinations thereof. Table 1 below depicts the sample stability over time for various amorphous materials produced using the invented method.
The structure of the starting crystalline materials, the supersaturated samples processed in the levitator, and the in-situ progress of the evaporation experiments were measured using the 115 keV x-ray diffraction beam line 11-ID-C at the Advanced Photon Source, located at Argonne National Laboratory, Argonne, Ill. X-rays with an incident wavelength of 0.10798 Å were used and the scattered x-ray intensity was measured with a flat plate a-Si Perkin Elmer area detector (model XRD 1621). Generally, radiations greater than 40 keV are suitable to provide bulk structure detail of materials about a millimeter or two in size.

[3] = Retention of amorphous form on temperature exposure and room temperature storage (x-ray diffraction); settings: for Amorphous state during temperature exposure: exposure to temperatures between about −200° C. and 25° C.; for Time amorphous form could be stored: room temperature, in glass or in contact with polyimide film
From the text: (Suitable film is polyimide film, e.g., Kapton from Dupont.)
The structure and properties of stable or meta-stable amorphous gels are often quite different from their crystalline counterparts. Therefore at, or just prior to, tP the gels were quenched into a small dish of liquid nitrogen in an attempt to preserve the amorphous forms. The cold solid samples were quickly recovered and re-levitated. In-situ x-ray structure measurements were then made on the cold solids as they warmed back to room temperature.
Generally, radiations greater than 40 keV are suitable to provide bulk structure detail of materials about a millimeter or two in size.

[4] = In situ x-ray monitoring of levitated amorphous gel over time; settings: after more than 14 hours of in situ measurements on the levitated drop, from ethanol solution
From the text: By following the position of the principal peak in the x-ray diffraction patterns for all the supersaturated solutions, the amorphization process was investigated as a function of time. […] The fact there are no sharp (needle like) peaks in the measured spectra indicates the materials are completely amorphous. […] Some of the samples prepared using the invented process maintained their amorphous form for at least three weeks. This imaging method enabled the structural evolution of the material to be monitored in real time. The data were acquired from levitated samples in two minute duration sets.

[5] = quenched samples stored at about −20° C. to 25° C., as noted in Table 1

Compound	Tg [1]	Stability of amorphized drug over a period of months [2, 5]	Amorphous state during temperature exposure [3]	Time amorphous form could be stored [3]	further results
C(=C\c1ccccc1)/CN1CCN(C(c2ccccc2)c2ccccc2)CC1 [Cinnazirine, Cinnarizine]	7 °C	remained substantially stable			
CC(C)(C)CC(C)(C)c1ccc(O)c(Cc2ccc(Cl)cc2Cl)c1 [Clofoctol]			remain amorphous	at least three	
Clc1ccccc1C(c1ccccc1)(c1ccccc1)n1ccnc1 [Clotrimazole]	30 °C	remained substantially stable	remain amorphous	at least three	
Clc1ccc(COC(Cn2ccnc2)c2ccc(Cl)cc2Cl)c(Cl)c1 (stereo not shown) [Miconazole Nitrate]	1 °C	remained substantially stable			
CC(C)(Sc1cc(C(C)(C)C)c(O)c(C(C)(C)C)c1)Sc1cc(C(C)(C)C)c(O)c(C(C)(C)C)c1 [Probucol]	27 °C				Stability of amorphized drug over a period of months [2]: remained substantially stable

Second part, led by results:

Tg [1]	Stability of amorphized drug over a period of months [2, 5]	Amorphous state during temperature exposure [3]	Time amorphous form could be stored [3]	Compound	further results
61 °C				NC(=O)N1c2ccccc2C=Cc2ccccc21 [Carbamazepine]	Shelf life: amorphous state at time 1 month ([2]; stored at 4° C., 1 month): A/P; Shelf life: amorphous state at time 2 months ([2]; stored at 4° C., 2 months): A/P; Shelf life: amorphous state at time 3 months ([2]; stored at 4° C., 3 months): A/P; Shelf life: amorphous state at time 4 months ([2]; stored at 4° C., 4 months): A/P
			at least three	CC(C)Cc1ccc(C(C)C(=O)O)cc1 (stereo not shown) [Ibuprofen]	Changes in structure of levitated amorphous gel after plateau [4]: only minimal changes in structure
−3 °C		remain amorphous	at least three	CC(C(=O)O)c1cccc(C(=O)c2ccccc2)c1 (stereo not shown) [Ketoprofen]	
